Test results as given in US11254680B2, “Cyclic iminopyrimidine derivatives as kinase inhibitors” (ABM Therapeutics Corporation, priority 2017, dated 2022).

System: A375 melanoma cells
Test: Antiproliferation assay in A375 cell line by CellTiter Glo
Format: cell-based
Conditions: Homo sapiens, A-375, 72 hours or 144 hours
Description: In vitro anti-proliferation study of test compounds in A375 cell line by CellTiter Glo. The cells were routinely maintained as a monolayer culture in corresponding culture medium, at 37° C. with 5% CO2 in air.
Harvest the exponential growth cells by trypsin-EDTA digestion. Re-suspend the cell pellet in fresh culture medium, and adjust the concentration to needed (the cell density per well was listed in following form). The cell viability is over 98% by Trypan blue staining. Inoculate cells into 96 wells plates according to the plate map (90 μL/well). Incubate the plates at 37° C. and 5% CO2 overnight. The next day, prepare the 10×compound containing medium according to the plate map. Transfer 10 μL of 10×compound containing medium into each well of the assay plates (the final DMSO concentration is 0.5%). Gently mix the medium and incubate at 37° C. and 5% CO2 for another 72 hours or 144 hours.
Prepare the reagent according to the manufacture's instruction. Add 50 μL CellTiter-Glo Reagent in each well. Mix contents for 2 minutes on an orbital shaker to induce cell lysis. Allow the plate to incubate at room temperature for 10 minutes to stabilize luminescent signal. Transfer 100 μL of reaction contents of each well from the clear plates into white walled/white opaque 96-well plates. Record the luminescence on Envision.
Using the luminescence measurements [time zero (T0), control growth (C), and test growth in the presence of drug at the six concentration levels (Ti)], the percentage growth is calculated at each of the drug concentrations levels.
Percentage growth inhibition (GI) is calculated as: GI (%)═[(Ti-T0)/(C-T0)]×100 for concentrations for which Ti>=T0, and GI (%)═[(Ti-T0)/T0]×100 for concentrations for which Ti<T0. Data were analyzed using the XLFit (Excel) tool, fitting to a 4-parameter equation to generate concentration response curves. Concentration of compound that inhibits 50% of control cell growth (GI50) was back-interpolated when y=50% of net growth of DMSO treated control wells using nonlinear regression with the equation: f(x) 205 [fit=(A+((B−A)/(1+((C/x)^))))], where A is the minimum response (Ymin), B is the maximum response (Ymax), C is the inflection point of the curve (Re GI50) and D is the Hill coefficient. Growth inhibition of 50% (GI50) was calculated at the 50% Growth inhibition on the curve. Index values were the sum of Inhibition rate (IR) at each tested compound concentration.

| GI50 [nM] | SMILES |
| --- | --- |
| > 1000 | CCCS(=O)(=O)Nc1ccc(N)c(Oc2ccc3c(c2)C2=NCCN2C=N3)c1F [Compound 8, N-(4-Amino-3-((2,3-dihydroimidazo[1,2-c]quinazolin-9-yl)oxy)-2-fluorophenyl)propane-1-sulfonamide] |
| 100 to 1000 | CCCS(=O)(=O)Nc1cccc(Nc2cc3c(cn2)N=CN2CCCN=C32)c1C#N [Compound 43, N-(2-Cyano-3-((3,4-dihydro-2H-pyrido[4,3-e]pyrimido[1,2-c]pyrimidin-10-yl)amino)phenyl)propane-1-sulfonamide] |
| < 100 | CC1(C)CN2C=Nc3ccc(Oc4cccc(NS(=O)(=O)N5CCCC5)c4Cl)cc3C2=N1 [Compound 54, N-(2-Chloro-3-((2,2-dimethyl-2,3-dihydroimidazo[1,2-c]quinazolin-9-yl)oxy)phenyl)pyrrolidine-1-sulfonamide] |
| > 1000 | CCCS(=O)(=O)Nc1c(N)ccc(Oc2ccc3c(c2)C2=NCCCN2C=N3)c1F [Compound 20, N-(6-Amino-3-((3,4-dihydro-2H-pyrimido[1,2-c]quinazolin-10-yl)oxy)-2-fluorophenyl)propane-1-sulfonamide] |
| < 100 | CCCS(=O)(=O)Nc1cccc(Oc2ccc3c(c2)C2=NC(C)(C)CN2C=N3)c1Cl [Compound 55, N-(2-Chloro-3-((2,2-dimethyl-2,3-dihydroimidazo[1,2-c]quinazolin-9-yl)oxy)phenyl)propane-1-sulfonamide] |
| > 1000 | CCCS(=O)(=O)Nc1nccc(Oc2ccc3c(c2)C2=NCCCN2C=N3)c1C#N [Compound 24, N-(3-Cyano-4-((3,4-dihydro-2H-pyrimido[1,2-c]quinazolin-10-yl)oxy)pyridin-2-yl)propane-1-sulfonamide] |
| > 1000 | CCN(C)S(=O)(=O)Nc1cccc(Oc2ccc3c(c2)C2=NCCN2C=N3)c1Cl [Compound 45, N-(2-Chloro-3-((2,3-dihydroimidazo[1,2-c]quinazolin-9-yl)oxy)phenyl)-N-ethyl-N-methylamino-1-sulfonamide] |
| 100 to 1000 | CCCS(=O)(=O)Nc1c(F)cc(F)c(Oc2ccc3c(c2)C2=NCCN2C=N3)c1C#N [Compound 4, N-(2-Cyano-3-((2,3-dihydroimidazo[1,2-c]quinazolin-9-yl)oxy)-4,6-difluorophenyl)propane-1-sulfonamide] |
| > 1000 | CCCS(=O)(=O)Nc1cccc(Oc2ccc3c(c2)C2=NCCN2C=N3)c1N [Compound 13, N-(2-Amino-3-((2,3-dihydroimidazo[1,2-c]quinazolin-9-yl)oxy)phenyl)propane-1-sulfonamide] |
| < 100 | O=S(=O)(CCCF)Nc1cccc(Oc2ccc3c(c2)C2=NCCCN2C=N3)c1Cl [Compound 38, N-(2-Chloro-3-((3,4-dihydro-2H-pyrimido[1,2-c]quinazolin-10-yl)oxy)phenyl)-3-fluoropropane-1-sulfonamide] |
| > 1000 | CCCS(=O)(=O)Nc1ccnc(Oc2ccc3c(c2)C2=NCCCN2C=N3)c1C#N [Compound 25, N-(3-Cyano-2-((3,4-dihydro-2H-pyrimido[1,2-c]quinazolin-10-yl)oxy)pyridin-4-yl)propane-1-sulfonamide] |
| < 100 | CCN(C)S(=O)(=O)Nc1cccc(Oc2ccc3c(c2)C2=NCCCN2C=N3)c1Cl [Compound 41, N-(2-Chloro-3-((3,4-dihydro-2H-pyrimido[1,2-c]quinazolin-10-yl)oxy)phenyl)-N-ethyl-N-methylamino-1-sulfonamide] |
| > 1000 | O=S(=O)(Nc1cc(Oc2ccc3c(c2)C2=NCCN2C=N3)ccc1F)N1CCCC1 [Compound 49, N-(5-((2,3-Dihydroimidazo[1,2-c]quinazolin-9-yl)oxy)-2-fluorophenyl)pyrrolidine-1-sulfonamide] |
| 100 to 1000 | O=S(=O)(CCCO)Nc1cccc(Oc2ccc3c(c2)C2=NCCCN2C=N3)c1Cl [Compound 39, N-(2-Chloro-3-((3,4-dihydro-2H-pyrimido[1,2-c]quinazolin-10-yl)oxy)phenyl)-3-hydroxypropane-1-sulfonamide] |
| > 1000 | CCCS(=O)(=O)Nc1cc(Oc2ccc3c(c2)C2=NCCN2C=N3)ccc1F [Compound 51, N-(5-((2,3-Dihydroimidazo[1,2-c]quinazolin-9-yl)oxy)-2-fluorophenyl)propane-1-sulfonamide] |
| 100 to 1000 | CCCS(=O)(=O)Nc1cccc(Oc2cc3c(cn2)N=CN2CCCN=C32)c1C#N [Compound 27, N-(2-Cyano-3-((3,4-dihydro-2H-pyrido[4,3-e]pyrimido[1,2-c]pyrimidin-10-yl)oxy)phenyl)propane-1-sulfonamide] |
| < 100 | CN(CCF)S(=O)(=O)Nc1cccc(Oc2ccc3c(c2)C2=NCCN2C=N3)c1Cl [Compound 47, N-(2-Chloro-3-((2,3-dihydroimidazo[1,2-c]quinazolin-9-yl)oxy)phenyl)-(2-fluoroethyl)(methyl)amino-1-sulfonamide] |
| > 1000 | CCCS(=O)(=O)Nc1ccc([N+](=O)[O-])c(Oc2ccc3c(c2)C2=NCCN2C=N3)c1F [Compound 7, N-(3-((2,3-Dihydroimidazo[1,2-c]quinazolin-9-yl)oxy)-2-fluoro-4-nitrophenyl)propane-1-sulfonamide] |
| > 1000 | CCCS(=O)(=O)Nc1cccc(Oc2ccc3c(c2)C2=NCCCCN2C=N3)c1C#N [Compound 28, N-(2-Cyano-3-((2,3,4,5-tetrahydro-[1,3]diazepino[1,2-c]quinazolin-11-yl)oxy)phenyl)propane-1-sulfonamide] |
| < 100 | CC1(C)CN2C=Nc3ccc(Oc4cccc(NS(=O)(=O)N5CC[C@@H](F)C5)c4Cl)cc3C2=N1 [Compound 53, (R)—N-(2-Chloro-3-((2,2-dimethyl-2,3-dihydroimidazo[1,2-c]quinazolin-9-yl)oxy)phenyl)-3-fluoropyrrolidine-1-sulfonamide] |
| < 100 | O=S(=O)(Nc1cccc(Oc2ccc3c(c2)C2=NCCCN2C=N3)c1Cl)N1CC[C@@H](F)C1 [Compound 40, (R)—N-(2-Chloro-3-((3,4-dihydro-2H-pyrimido[1,2-c]quinazolin-10-yl)oxy)phenyl)-3-fluoropyrrolidine-1-sulfonamide] |
| < 100 | O=S(=O)(Nc1cccc(Oc2ccc3c(c2)C2=NCCN2C=N3)c1Cl)N1CCCC1 [Compound 48, N-(2-Chloro-3-((2,3-dihydroimidazo[1,2-c]quinazolin-9-yl)oxy)phenyl)pyrrolidine-1-sulfonamide] |
| > 1000 | CCCS(=O)(=O)Nc1cccc(N(C)c2cc3c(cn2)N=CN2CCCN=C32)c1C#N [Compound 42, N-(2-Cyano-3-((3,4-dihydro-2H-pyrido[4,3-e]pyrimido[1,2-c]pyrimidin-10-yl)(methyl)amino)phenyl)propane-1-sulfonamide] |
| > 1000 | CCCS(=O)(=O)Nc1ccc(F)c(Oc2ccc3c(c2)C2=NCCN2C=N3)c1F [Compound 10, N-(3-((2,3-Dihydroimidazo[1,2-c]quinazolin-9-yl)oxy)-2,4-difluorophenyl)propane-1-sulfonamide] |
| > 1000 | CCCS(=O)(=O)Nc1ccnc(Oc2ccc3c(c2)C2=NCCCN2C=N3)c1[N+](=O)[O-] [Compound 22, N-(2-((3,4-Dihydro-2H-pyrimido[1,2-c]quinazolin-10-yl)oxy)-3-nitropyridin-4-yl)propane-1-sulfonamide] |
| < 100 | CC(C)S(=O)(=O)Nc1cccc(Oc2ccc3c(c2)C2=NCCN2C=N3)c1Cl [Compound 44, N-(2-Chloro-3-((2,3-dihydroimidazo[1,2-c]quinazolin-9-yl)oxy)phenyl)propane-2-sulfonamide] |
| > 1000 | CCCS(=O)(=O)Nc1c([N+](=O)[O-])ccc(Oc2ccc3c(c2)C2=NCCCN2C=N3)c1F [Compound 19, N-(3-((3,4-Dihydro-2H-pyrimido[1,2-c]quinazolin-10-yl)oxy)-2-fluoro-6-nitrophenyl)propane-1-sulfonamide] |
